{"source": "patent US5306713A", "about": "“Highly active antioxidant of tocopheryl ascorbyl phosphate” (Shiseido Company Ltd., priority 1991, dated 1994)", "key": {"[1]": {"experiment": "solubility in water", "type": "physicochemical"}, "[2]": {"experiment": "amount of formalin in triethylene glycol stored at 50° C., by colorimetry (Experimental Example 1)", "conditions": "50% aqueous triethylene glycol; for amount of formalin, After 3 Days / amount of formalin, After 6 Days / amount of formalin, Just After Preparation: 2 mg antioxidant in 10 g", "description": "As the example of the present invention, 2 mg of the sodium salt of phosphoric acid diester obtained in Preparation Example 2 was dissolved in 10 g of a 50% aqueous solution of triethylene glycol (supplied by Nakarai Chemicals Co., Ltd.), the solution was stored in a thermostat tank maintained at 50° C. for 3 or 6 days, and the amount of formalin was measured by colorimetry.\nTriethylene glycol free of any antioxidant as Comparison Example 1, triethylene glycol in which ascorbic acid was added in the same amount as in the Example of the present invention, as Comparison Example 2, and triethylene glycol in which mixed tocopherol was incorporated in the same amount as in the example of the present invention, as Comparison Example 3, were tested in the same manner as described above."}, "[3]": {"experiment": "smell evaluation of stored triethylene glycol samples by three experts (Experimental Example 2)", "parameters": "key: +: no smell of rancidity; -: strong smell of rancidity", "conditions": "samples of Experimental Example 1 after 6 days storage", "description": "The sample of the Example of the present invention and Comparison Examples 1, 2, and 3 in Experimental Example 1, obtained after 6 days storage, were evaluated with respect to the smell thereof.\nThe evaluation was made by three experts."}, "[4]": {"experiment": "anti-oxidizing effect against oxidation of phospholipid/ethanol mixed micell by Fe^2+.ascorbic acid (Experimental Example 3)", "type": "biochemical", "conditions": "4.0 × 10^-5 M", "description": "The anti-oxidizing effect of the sodium salt of phosphoric acid diester prepared in Preparation Example 2 against the oxidation of a phospholipid (egg lecitin)/ethanol mixed micell by Fe^2+.ascorbic acid was examined.\nAbout 78 mg of egg lecitin was dissolved in 2 ml of ethanol, and 5 mM HEPES buffer solution (pH 7.2) was gradually added to the solution with ice cooling under the application of an ultrasonic wave (50 W) to form a suspension, until the total amount was 100 ml. Then, 200 μl of a 2.6×10^-4 M aqueous solution of the sodium salt of phosphoric acid diester was added to 1000 μl of the so-formed liquid. Then 50 μl of a 5.0×10^-5 M aqueous solution of sodium ascorbate and 50 μl of a 2.5×10^-6 M aqueous solution of ferrous sulfate were added to the mixture, and oxidation was carried out for 15 minutes in a water bath at 25° C. After the reaction, 50 μl of a 0.1% solution of hydroquinone in ethanol was immediately added to stop the reaction. […] After cooling, the absorbance at 450 to 600 nm was measured by a spectrophotometer. The increase of the absorption in the vicinity of about 530 to about 540 nm in the obtained curve was measured. The inhibition ratio was determined by comparing the obtained result with the result obtained at the blank test not using the test liquid."}, "[5]": {"conditions": "cited from earlier work"}}, "note": "Counter-ions that a name gives are not always drawn."}
{"compound": "Cc1c(C)c2c(c(C)c1OP(=O)(O)OC1=C(O)[C@@H]([C@@H](O)CO)OC1=O)CCC(C)(CCCC(C)CCCC(C)CCCC(C)C)O2", "note": "(stereo partly shown) [calcium salt]", "values": [{"measurement": "solubility in water (in words)", "setting": "[1]", "result": "insoluble in water"}]}
{"compound": "Cc1c(C)c2c(c(C)c1OP(=O)(O)OC1=C(O)[C@@H]([C@@H](O)CO)OC1=O)CCC(C)(CCCC(C)CCCC(C)CCCC(C)C)O2", "note": "(mixture of isomers) [sodium salt of phosphoric acid diester, sodium L-ascorbic DL-α-tocopherol phoschate]", "values": [{"measurement": "amount of formalin, After 3 Days", "setting": "[2]; 50° C.", "result": 1.7}, {"measurement": "amount of formalin, After 6 Days", "setting": "[2]; 50° C.", "result": 15.5}, {"measurement": "amount of formalin, Just After Preparation", "setting": "[2]", "result": 0.1}, {"measurement": "anti-oxidizing effect compared with ascorbic acid or tocopherol alone (in words)", "setting": "[2]; 50° C., 3 or 6 days", "result": "much higher anti-oxidizing effect"}, {"measurement": "Judgement of Smell", "setting": "[3]", "result": "+"}, {"measurement": "inhibition of the oxidation (in words)", "setting": "[4]", "result": "substantially completely inhibited the oxidation"}, {"measurement": "Inhibition Ratio", "setting": "[4]; oxidation 15 minutes at 25° C., pH 7.2 HEPES, TBA absorbance about 530 to about 540 nm, 40 µM", "result": 99.1, "unit": "%"}, {"measurement": "solubility in water (in words)", "setting": "[1]", "result": "soluble in water"}]}
{"compound": "O=C1O[C@H]([C@@H](O)CO)C(O)=C1O", "note": "[ascorbic acid, reference compound]", "values": [{"measurement": "amount of formalin, After 3 Days", "setting": "[2]; 50° C.", "result": 39.6}, {"measurement": "amount of formalin, After 6 Days", "setting": "[2]; 50° C.", "result": 111.7}, {"measurement": "amount of formalin, Just After Preparation", "setting": "[2]", "result": 0.1}, {"measurement": "Judgement of Smell", "setting": "[3]", "result": "-"}]}
{"compound": "Cc1c(C)c2c(c(C)c1OP(=O)(O)OC1=C(O)[C@@H]([C@@H](O)CO)OC1=O)CCC(C)(CCCC(C)CCCC(C)CCCC(C)C)O2", "note": "(mixture of isomers) [potassium salt, potassium L-ascorbic DL-α-tocopherol phosphate]", "values": [{"measurement": "solubility in water (in words)", "setting": "[1]", "result": "soluble in water"}]}
{"compound": "Cc1c(C)c2c(c(C)c1OP(=O)(O)OC1=C(O)[C@@H]([C@@H](O)CO)OC1=O)CCC(C)(CCCC(C)CCCC(C)CCCC(C)C)O2", "note": "(mixture of isomers) [phosphoric acid diester, L-ascorbic DL-α-tocopherol phosphate]", "values": [{"measurement": "solubility in water (in words)", "setting": "[1]", "result": "freely dissolved in water"}]}
{"compound": "tocopherol", "values": [{"measurement": "solubility of tocopherol in water (in words)", "setting": "[5]", "result": "not soluble in water"}]}
